Source: patent publication US11180449B2, “Crystal form of key intermediate of bruton tyrosine kinase (BTK) inhibitor and preparation method thereof” (SHANGHAI ZAIQI BIO-TECH CO., LTD., priority 2019, dated 2021)
Entries after “also recorded” stand apart in the source; their conditions may differ.

Legend:
[1] = Special stability of crystal form II (grinding, heating, tableting); format: physicochemical
Description: The crystal form II of a compound of formula (I) prepared according to the method of Example 2 was subjected to grinding, heating and tableting.

[2] = Stability comparison between crystal forms I and II (influence factors: light, temperature, humidity); format: physicochemical; settings: for change of purity of the compound: 10 days under light, 30° C. and 40° C., 75% RH and 90% RH

| SMILES | purity of the compound, 30° C. ([2]; day 0) [%] | purity of the compound, 30° C. ([2]; day 5) [%] | purity of the compound, 30° C. ([2]; day 10) [%] | purity of the compound, 30° C. ([2]; day 30) [%] | purity of the compound, 40° C. ([2]; day 0) [%] | purity of the compound, 40° C. ([2]; day 5) [%] | purity of the compound, 40° C. ([2]; day 10) [%] | purity of the compound, 40° C. ([2]; day 30) [%] | change of purity of the compound [2] | purity of the compound, Illumination ([2]; open condition, day 0) [%] | purity of the compound, Illumination ([2]; open condition, day 5) [%] | purity of the compound, Illumination ([2]; open condition, day 10) [%] | purity of the compound, Illumination ([2]; open condition, day 30) [%] | purity of the compound, RH75% ([2]; day 0) [%] | purity of the compound, RH75% ([2]; day 5) [%] | purity of the compound, RH75% ([2]; day 10) [%] | purity of the compound, RH75% ([2]; day 30) [%] | purity of the compound, RH90% ([2]; day 0) [%] | purity of the compound, RH90% ([2]; day 5) [%] | purity of the compound, RH90% ([2]; day 10) [%] | further results |
| --- | --- | --- | --- | --- | --- | --- | --- | --- | --- | --- | --- | --- | --- | --- | --- | --- | --- | --- | --- | --- | --- |
| CCOC(=O)c1c(C#N)c(-c2ccc(Oc3c(F)cccc3F)cc2)cn1[C@@H]1CCN(C(=O)OC(C)(C)C)C1 [Crystal form II] | 99.73 | 99.72 | 99.72 | 99.67 | 99.73 | 99.68 | 99.65 | 99.60 | not obviously changed | 99.73 | 99.56 | 99.43 | 99.21 | 99.73 | 99.72 | 99.68 | 99.64 | 99.73 | 99.71 | 99.61 | XRD detection (crystal form after treatment) ([1]; Grinding for 10 min in a mortar under nitrogen protection): Crystal; XRD detection (crystal form after treatment) ([1]; Tableting): Crystal; stability of the crystal form under mechanical treatment ([1]; grinding, heating and tableting (pressure)): good stability; also recorded: stable; purity of the compound, RH90% ([2]; day 30): 99.53%; crystal form re-tested after the influence factor experiment [2]: not changed; stability compared with crystal form I (amorphous sample) ([2]; open condition, light, high temperature and high humidity): significantly better |
| CCOC(=O)c1c(C#N)c(-c2ccc(Oc3c(F)cccc3F)cc2)cn1[C@@H]1CCN(C(=O)OC(C)(C)C)C1 [Crystal form I] | 99.31 | 99.23 | 99.10 | 98.87 | 99.31 | 99.18 | 99.05 | 95.01 | not obviously changed | 99.31 | 97.75 | 95.53 | 85.76 | 99.31 | 99.18 | 98.97 | 97.41 | 99.31 | 98.91 | 98.51 | purity of the compound, RH90% ([2]; day 30): 95.91%; crystal form re-tested after the influence factor experiment [2]: not changed |
